Source: paper PMC10952572, “Improved PIEZO1 agonism through 4‐benzoic acid modification of Yoda1” (British Journal of Pharmacology, 2023)

Columns and labels:
mPIEZO1 = target: T1, mPIEZO1 (Mus musculus, UniProt E2JF22); assay: Automated patch clamp (SyncroPatch 384) on mPIEZO1-TREx cells; type: cell-based; settings: for Effect on M-Stim-evoked currents: mPIEZO1-TREx cells, −80 mV; for Cells responding to activation: mPIEZO1-TREx, 10 μM KC157, 10 μM Yoda1, 5 μM KC159
T1 construct: expressed in transfected cells
Protocol: For automated patch clamp, cells were cultured and harvested according to Nanion's standard cell culture protocol (Obergrussberger et al., [2014]). hPIEZO1‐TREx cells were induced to express PIEZO1 by incubation with 0.5 μg·ml^−1 tetracycline 24 h prior to experiments. Whole‐cell patch‐clamp recordings were conducted on HEK‐TREx, hPIEZO1‐TREx and mPIEZO1‐TREx cells according to Nanion's standard procedure for the SyncroPatch 384, using medium resistance (4–5 MΩ) chips (Obergrussberger et al., [2018]). Cells were held at −80 mV for the duration of the experiment. The channel was activated by mechanical forces in the absence and presence of the agonists. To stimulate PIEZO1 channels mechanically (mechanical stimulation [M‐Stim]), we dispensed 20 μl of solution (either reference or agonist) locally to the cell at a pipetting speed of 110 μl·s^−1 in synchrony with a triggered recording of the current response at the holding potential. The internal solution contained 110 mM KF, 10 mM KCl, 10 mM NaCl, 10 mM HEPES and 10 mM EGTA, pH adjusted to 7.2 with KOH, and the external solution contained 140 mM NaCl, 4 mM KCl, 2 mM CaCl2, 1 mM MgCl2, 5 mM glucose, 10 mM HEPES, pH adjusted to 7.4 with NaOH, and 0.1% DMSO to match the DMSO concentration of the compound solutions. For PIEZO1 stimulation, KC159, KC157 or Yoda1 was applied directly onto the cells via a pipette application. One chip of the SyncroPatch 384 is equipped with 384 wells served by 384 robotic pipettes and connected to 384 individual amplifiers, allowing us to test 384 distinct cells in one experiment. We tested the effect of each specified analogue on mPIEZO1‐, hPIEZO1‐ and untransfected HEK‐TREx cells in parallel and in comparison to mechanical and Yoda1 stimulation. To estimate the EC50 values, four concentrations of each agonist were tested per cell line in one chip, with each cell receiving single concentrations, and the concentration–response curve was calculated across the whole chip (384 cells). Only cells with seal resistance >0.3 GΩ, series resistance <20 MΩ and cell capacitance >5 and <40 pF were used for analysis.
DataControl 384 (Nanion Technologies GmbH), Prism 9 (GraphPad) and OriginPro 2020 (OriginLab) were used for all analysis of automated patch‐clamp data. For manual and automated patch‐clamp data, n represents the number of cells recorded from successfully in each experimental condition, sampled from two to six batches of cells or 384‐well chips in automated patch clamp. For manual patch‐clamp experiments, each cell/patch recording (n) is considered as an independent experiment because each was made independently at a separate time, using a separate coverslip of cells and using a separate patch pipette. In some instances, more than one such independent recording was made from the same batch of cultured or transfected cells. These n values are considered as independent. Each cell was studied alone and from a separate coverslip in the case for manual patch clamp. To estimate the EC50 values of the agonists in automated patch‐clamp studies, the peak current in the presence of the agonist was normalised to the peak current in the presence of the reference solution. Single‐point concentration–response curves were fitted with a standard Hill equation to estimate EC50 values. P < 0.05 was deemed significant. For automated patch‐clamp experiments, we included some data for n < 5 (Figure 7a,b). […] Such replicates are a feature of, and a rationale for, this automated technology, which is an innovation for the type of research shown here but already commonly used in the pharmaceutical industry for other ion channel studies to increase throughput and avoid waste from large volumes of independent cell cultures and minimise cost from expensive specially engineered plates. As a general strategy, our study used multiple independent technical approaches to address the same or similar questions. […]

[1] = Kinetic and thermodynamic solubility assays (Malvern Panalytical); type: physicochemical; settings: phosphate buffer, physiological pH 7.4; compared with Yoda1
Protocol: Kinetic and thermodynamic solubility assays were also performed by Malvern Panalytical (UK). Briefly, 1000 μl of 0.1 M phosphate buffer (pH 7.4) received either 25 μl of a 10 mM DMSO stock of test compound (for kinetic solubility assays) or 1 mg of test compound (for thermodynamic solubility assays). The mixtures were shaken on an orbital mixer to reach equilibrium for 1 or 24 h, respectively. The equilibrated solution was centrifuged, and the supernatant was removed to a fresh vial and then re‐centrifuged. High‐ and low‐dilution samples were prepared from the secondary supernatant and quantified by LC–MS/MS against a standard curve.

Microsomal half-life = type: in vitro ADME; settings: mouse liver microsomes; for half-life at 1 μM: 1 μM compound
Protocol: Compound half‐lives were measured by Malvern Panalytical (UK). Briefly, microsomal mouse liver microsomes (1 mg protein·ml^−1) were pre‐incubated with NADPH cofactor solution at 37°C. Biotransformation was initiated by addition and mixing of 1 μM test compound in a final volume of 350 μl; 25 μl aliquots were removed at 5 min intervals for 35 min and quenched in 300 μl ice‐cold methanol containing internal standard. The protein in the samples was then precipitated by centrifugation at 4°C, and the supernatant was analysed by LC–MS/MS to quantify the test parent compound remaining at each time point.

[2] = target: T2, human adenosine A2A receptors (Homo sapiens, UniProt P29274); assay: Eurofins Hit Profiling Screen PP70: adenosine A2A receptor binding; settings: 5 μM
T2 construct: host or cells: HEK 293 membranes
Protocol: These experiments were performed by Eurofins Scientific, and the methods below are from this company's information. Membrane protein/membrane amounts may have varied, and the concentrations used were adjusted as necessary. KC289 was tested at 5 μM.
This assay measured binding of [^3H]CGS‐21680 to human adenosine A2A receptors. HEK 293 cells stably transfected with a plasmid encoding the human adenosine A2A receptor were used to prepare membranes in modified Tris–HCl pH 7.4 buffer using standard techniques. A 15 μg aliquot of membrane was incubated with […] [^3H]CGS‐21680 for 90 min at 25°C. Non‐specific binding was estimated in the presence of 50 μM NECA. Membranes were filtered and washed three times, and the filters were counted to determine [^3H]CGS‐21680 specifically bound.

T1 sequence (E2JF22 whole entry): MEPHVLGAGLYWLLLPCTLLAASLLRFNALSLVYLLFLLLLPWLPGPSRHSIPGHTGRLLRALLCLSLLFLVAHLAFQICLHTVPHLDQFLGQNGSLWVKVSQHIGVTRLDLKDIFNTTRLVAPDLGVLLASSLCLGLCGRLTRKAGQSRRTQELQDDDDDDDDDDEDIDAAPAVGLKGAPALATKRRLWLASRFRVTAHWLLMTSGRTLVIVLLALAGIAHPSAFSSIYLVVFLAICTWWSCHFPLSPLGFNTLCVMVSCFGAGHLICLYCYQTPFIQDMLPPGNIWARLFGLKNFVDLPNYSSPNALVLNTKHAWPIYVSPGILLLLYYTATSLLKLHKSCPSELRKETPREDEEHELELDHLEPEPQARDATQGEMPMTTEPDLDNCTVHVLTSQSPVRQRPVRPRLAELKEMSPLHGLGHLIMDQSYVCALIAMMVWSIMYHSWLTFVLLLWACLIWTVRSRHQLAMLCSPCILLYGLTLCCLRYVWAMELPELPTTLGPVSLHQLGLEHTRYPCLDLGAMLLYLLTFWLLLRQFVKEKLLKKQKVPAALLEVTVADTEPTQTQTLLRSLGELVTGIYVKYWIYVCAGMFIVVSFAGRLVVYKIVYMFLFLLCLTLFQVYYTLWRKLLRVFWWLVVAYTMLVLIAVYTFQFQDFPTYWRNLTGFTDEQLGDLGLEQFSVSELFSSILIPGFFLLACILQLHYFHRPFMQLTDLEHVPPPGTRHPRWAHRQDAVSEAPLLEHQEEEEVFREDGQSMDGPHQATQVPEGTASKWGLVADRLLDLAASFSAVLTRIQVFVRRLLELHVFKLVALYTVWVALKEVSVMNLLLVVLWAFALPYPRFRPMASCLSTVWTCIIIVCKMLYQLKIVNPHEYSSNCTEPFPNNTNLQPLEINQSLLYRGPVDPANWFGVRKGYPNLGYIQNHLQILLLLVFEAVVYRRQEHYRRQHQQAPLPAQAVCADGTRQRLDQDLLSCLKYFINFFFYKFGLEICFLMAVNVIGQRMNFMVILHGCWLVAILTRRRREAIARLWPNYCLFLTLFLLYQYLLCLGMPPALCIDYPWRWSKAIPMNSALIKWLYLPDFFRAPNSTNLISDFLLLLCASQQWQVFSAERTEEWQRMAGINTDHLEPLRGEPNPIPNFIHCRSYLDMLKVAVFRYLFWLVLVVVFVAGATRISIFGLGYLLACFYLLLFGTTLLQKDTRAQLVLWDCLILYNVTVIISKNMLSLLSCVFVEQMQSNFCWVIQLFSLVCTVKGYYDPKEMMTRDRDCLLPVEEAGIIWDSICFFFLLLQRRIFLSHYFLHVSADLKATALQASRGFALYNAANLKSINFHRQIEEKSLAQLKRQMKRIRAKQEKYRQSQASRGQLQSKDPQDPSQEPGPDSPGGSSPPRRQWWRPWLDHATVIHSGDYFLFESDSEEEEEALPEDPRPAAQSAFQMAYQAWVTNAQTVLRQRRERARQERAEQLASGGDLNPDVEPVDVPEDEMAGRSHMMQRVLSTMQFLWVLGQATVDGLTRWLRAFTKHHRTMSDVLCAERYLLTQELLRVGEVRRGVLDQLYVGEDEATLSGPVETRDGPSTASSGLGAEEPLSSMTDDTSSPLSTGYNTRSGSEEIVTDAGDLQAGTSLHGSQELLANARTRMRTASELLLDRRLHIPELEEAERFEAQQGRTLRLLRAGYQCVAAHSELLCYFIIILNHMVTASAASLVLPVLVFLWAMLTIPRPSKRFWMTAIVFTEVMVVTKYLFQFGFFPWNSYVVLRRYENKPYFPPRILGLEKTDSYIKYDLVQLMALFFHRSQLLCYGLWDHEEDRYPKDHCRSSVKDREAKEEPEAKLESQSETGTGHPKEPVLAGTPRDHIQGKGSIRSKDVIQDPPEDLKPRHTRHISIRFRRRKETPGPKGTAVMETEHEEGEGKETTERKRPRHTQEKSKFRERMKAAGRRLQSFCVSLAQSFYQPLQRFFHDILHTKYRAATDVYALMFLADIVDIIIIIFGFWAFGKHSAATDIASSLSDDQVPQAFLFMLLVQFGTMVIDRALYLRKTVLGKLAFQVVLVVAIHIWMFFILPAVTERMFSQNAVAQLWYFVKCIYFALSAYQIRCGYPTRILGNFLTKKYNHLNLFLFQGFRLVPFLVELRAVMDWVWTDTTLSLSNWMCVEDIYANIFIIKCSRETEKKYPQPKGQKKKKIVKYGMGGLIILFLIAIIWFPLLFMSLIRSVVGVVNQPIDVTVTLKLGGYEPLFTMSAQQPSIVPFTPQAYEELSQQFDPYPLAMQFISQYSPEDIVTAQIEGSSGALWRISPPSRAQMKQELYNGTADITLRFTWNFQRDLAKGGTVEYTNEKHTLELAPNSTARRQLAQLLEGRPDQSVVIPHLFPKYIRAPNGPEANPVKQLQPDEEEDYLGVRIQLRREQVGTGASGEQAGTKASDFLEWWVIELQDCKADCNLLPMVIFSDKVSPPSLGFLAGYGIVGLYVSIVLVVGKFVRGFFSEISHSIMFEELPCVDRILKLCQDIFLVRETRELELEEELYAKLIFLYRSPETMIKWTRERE
T2 sequence (P29274 whole entry): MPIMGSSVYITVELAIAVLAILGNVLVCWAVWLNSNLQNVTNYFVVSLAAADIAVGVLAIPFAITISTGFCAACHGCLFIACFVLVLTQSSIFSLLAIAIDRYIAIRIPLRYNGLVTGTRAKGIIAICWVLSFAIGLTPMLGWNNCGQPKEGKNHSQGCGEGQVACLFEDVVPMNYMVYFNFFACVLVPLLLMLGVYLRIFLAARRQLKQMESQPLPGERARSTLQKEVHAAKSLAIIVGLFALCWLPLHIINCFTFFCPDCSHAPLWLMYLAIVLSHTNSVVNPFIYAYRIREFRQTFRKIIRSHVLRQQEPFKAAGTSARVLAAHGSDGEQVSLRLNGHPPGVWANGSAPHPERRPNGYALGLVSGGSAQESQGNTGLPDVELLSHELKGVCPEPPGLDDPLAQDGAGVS

Row | SMILES | Effect on M-Stim-evoked currents (mPIEZO1; 10 μM) | Cells responding to activation (mPIEZO1) | Kinetic solubility [1] | Thermodynamic solubility [1] | Sustained component of current as % of the peak current amplitude (mPIEZO1; 10 μM, mPIEZO1 cells, mean ± SD) | EC50 (mPIEZO1; mouse PIEZO1, normalised peak current, maximum response not certain, read-out: EC50 (estimate)) | Microsomal half-life relative to Yoda1 (Microsomal half-life) | half-life at 1 μM (Microsomal half-life) | Binding to adenosine A2A receptors [2]
1 | O=C(O)c1ccccc1-c1nnc(SCc2c(Cl)cccc2Cl)s1 [KC157] | mostly fails to evoke responses | largely ineffective |  |  |  |  |  |  | 
2 | O=C(O)c1ccc(-c2nnc(SCc3c(Cl)cccc3Cl)s2)cc1 [KC159] | greatly amplifies the currents | more cells to respond compared with Yoda1 | better solubility than Yoda1 | better solubility than Yoda1 | 26 ± 8% | ~1540 nM | at least 20 times | 29.6 min | 
3 | O=C([O-])c1ccc(-c2nnc(SCc3c(Cl)cccc3Cl)s2)cc1.[K+] [KC289] |  |  | better solubility than Yoda1 | better solubility than Yoda1 |  |  | at least 20 times | 24.6 min | modest interaction
